Results as given in PubChem BioAssay (NCI).
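In this assay, cells in 96-well plates receive the compound at five concentrations for 48 hours. Endpoints are linearly interpolated between the surrounding concentrations. GI50: concentration for 50% inhibition of growth. Definition used: TGI = concentration required for complete inhibition of growth.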 Where a SMILES comes first, the peptide text is derived from it. [ ]: non-standard residue; d: D form. The star is where a group is joined. ξ: configuration not given here. ξF = NC(Cc1ccccc1)C(=O)O; Cbz = O=C(OCc1ccccc1)*; Aib = CC(C)(N)C(=O)O

Assays:
Assay in all cases: inhibition of tumour cell growth, NCI panel, 48 h
HCC-2998 colon = test system: HCC-2998 colon
HL-60(TB) leukemia = test system: HL-60(TB) leukemia
T-47D breast = test system: T-47D breast
HOP-62 NSCLC = test system: HOP-62 NSCLC
CAKI-1 renal = test system: CAKI-1 renal
MDA-N = test system: MDA-N
EKVX NSCLC = test system: EKVX NSCLC
DMS 273 small cell lung = test system: DMS 273 small cell lung
KM20L2 colon = test system: KM20L2 colon
HS 578T breast = test system: HS 578T breast
786-0 renal = test system: 786-0 renal

COC(=O)C(C)(C)NC(=O)C(Cc1ccccc1)NC(=O)C(C)(C)NC(=O)OCc1ccccc1 (centres undefined) (Cbz-[Aib]-[ξF]-[Aib]-OMe)
TGI (HCC-2998 colon): > 100 µM | TGI (HL-60(TB) leukemia): > 100 µM | TGI (T-47D breast): > 100 µM | TGI (HOP-62 NSCLC): > 100 µM | TGI (CAKI-1 renal): > 100 µM | TGI (MDA-N): > 100 µM | TGI (EKVX NSCLC): > 100 µM

Nc1c(-c2ccccc2[N+](=O)[O-])nc2ccccn12
TGI (HCC-2998 colon): > 100 µM | TGI (HL-60(TB) leukemia): > 100 µM | TGI (HOP-62 NSCLC): > 100 µM | TGI (DMS 273 small cell lung): > 100 µM | TGI (KM20L2 colon): > 100 µM | TGI (EKVX NSCLC): > 100 µM

C(=N\OCCc1ccccc1)/c1cccnc1
TGI (HCC-2998 colon): > 100 µM | TGI (HL-60(TB) leukemia): > 100 µM | TGI (T-47D breast): > 100 µM | TGI (HOP-62 NSCLC): > 100 µM | TGI (HS 578T breast): > 100 µM | TGI (MDA-N): > 100 µM | TGI (786-0 renal): > 100 µM | TGI (EKVX NSCLC): > 100 µM

Clc1ccc(-c2ccc(-c3nnc(COc4ccc(OCc5nnc(-c6ccc(-c7ccc(Cl)cc7Cl)o6)o5)c(Cl)c4)o3)o2)c(Cl)c1
TGI (HCC-2998 colon): > 100 µM | TGI (HL-60(TB) leukemia): > 100 µM | TGI (T-47D breast): > 100 µM | TGI (HOP-62 NSCLC): > 100 µM | TGI (HS 578T breast): > 100 µM | TGI (CAKI-1 renal): > 100 µM | TGI (MDA-N): > 100 µM | TGI (786-0 renal): > 100 µM | TGI (EKVX NSCLC): > 100 µM

CCCCOCc1cc(CN2CCN(C)CC2)c(O)c2ncccc12
TGI (HCC-2998 colon): 90.2 µM | TGI (HL-60(TB) leukemia): 13.8 µM | TGI (HOP-62 NSCLC): 41.8 µM | TGI (DMS 273 small cell lung): 40.2 µM | TGI (CAKI-1 renal): > 100 µM | TGI (KM20L2 colon): 73.7 µM | TGI (786-0 renal): 50.7 µM | TGI (EKVX NSCLC): > 100 µM

COc1cc(Nc2nnc3n2S(=O)(=O)c2cc(C)c(Cl)cc2S3)cc(OC)c1
TGI (HCC-2998 colon): > 100 µM | TGI (HL-60(TB) leukemia): 49.7 µM | TGI (T-47D breast): 44.5 µM | TGI (HOP-62 NSCLC): 26.7 µM | TGI (HS 578T breast): 66.9 µM | TGI (CAKI-1 renal): 79 µM | TGI (MDA-N): > 100 µM | TGI (786-0 renal): 20.5 µM | TGI (EKVX NSCLC): > 100 µM

c1cncc(O[Si](Oc2cccnc2)(Oc2cccnc2)Oc2cccnc2)c1
TGI (HCC-2998 colon): > 100 µM | TGI (DMS 273 small cell lung): > 100 µM | TGI (CAKI-1 renal): > 100 µM | TGI (EKVX NSCLC): > 100 µM

NCCSCc1ccccc1Cl
TGI (HCC-2998 colon): 38.7 µM | TGI (T-47D breast): > 100 µM | TGI (HOP-62 NSCLC): > 100 µM | TGI (HS 578T breast): > 100 µM | TGI (CAKI-1 renal): > 100 µM | TGI (MDA-N): > 100 µM | TGI (786-0 renal): > 100 µM | TGI (EKVX NSCLC): > 100 µM

Cc1ccc(N2CCN(CCC(=O)O)CC2)cc1
TGI (T-47D breast): > 100 µM | TGI (HOP-62 NSCLC): > 100 µM | TGI (HS 578T breast): > 100 µM | TGI (CAKI-1 renal): > 100 µM | TGI (786-0 renal): > 100 µM | TGI (EKVX NSCLC): > 100 µM

C[CH2][Ge]([CH2]C)([CH2]C)[O]C(=O)CCC(=O)[O][Ge]([CH2]C)([CH2]C)[CH2]C
GI50 (HCC-2998 colon): 90.9 µM | TGI (HCC-2998 colon): > 100 µM | GI50 (HOP-62 NSCLC): > 100 µM | TGI (HOP-62 NSCLC): > 100 µM | GI50 (DMS 273 small cell lung): 85.9 µM | TGI (DMS 273 small cell lung): > 100 µM | GI50 (CAKI-1 renal): > 100 µM | TGI (CAKI-1 renal): > 100 µM | GI50 (KM20L2 colon): > 100 µM | TGI (KM20L2 colon): > 100 µM | GI50 (EKVX NSCLC): 20.5 µM | TGI (EKVX NSCLC): > 100 µM

N=C(N)c1ccc(-c2ccc(-c3cccs3)s2)s1
GI50 (HCC-2998 colon): 1.13 µM | TGI (HCC-2998 colon): 2.48 µM | GI50 (HL-60(TB) leukemia): 1.58 µM | TGI (HL-60(TB) leukemia): 3.42 µM | GI50 (CAKI-1 renal): 1.57 µM | TGI (CAKI-1 renal): 2.95 µM

COc1cc(-c2n/c(=C\c3c(O)[nH]c4cc(Cl)ccc34)cc3c2=Nc2ccccc2-3)cc(OC)c1OC
GI50 (HCC-2998 colon): 7.32 µM | TGI (HCC-2998 colon): > 100 µM | GI50 (HL-60(TB) leukemia): 84.4 µM | TGI (HL-60(TB) leukemia): > 100 µM | GI50 (T-47D breast): 4.19 µM | TGI (T-47D breast): 18.5 µM | GI50 (HOP-62 NSCLC): 2.64 µM | TGI (HOP-62 NSCLC): 5.73 µM | GI50 (HS 578T breast): 2.51 µM | TGI (HS 578T breast): 19 µM | GI50 (CAKI-1 renal): 10.9 µM | TGI (CAKI-1 renal): 60 µM | GI50 (EKVX NSCLC): 4.99 µM | TGI (EKVX NSCLC): 27.1 µM

COc1ccc(/C=C2\Sc3nnc(CNc4ccc(Cl)cc4)n3N=C2c2cc(F)c(Cl)cc2Cl)cc1OC
TGI (HCC-2998 colon): > 100 µM | TGI (HL-60(TB) leukemia): > 100 µM | TGI (T-47D breast): > 100 µM | TGI (HOP-62 NSCLC): > 100 µM | TGI (HS 578T breast): > 100 µM | TGI (CAKI-1 renal): 80.5 µM | TGI (MDA-N): > 100 µM | TGI (786-0 renal): > 100 µM | TGI (EKVX NSCLC): > 100 µM

CCOc1ccc(N=NS(=O)(=O)O)cc1
TGI (HCC-2998 colon): > 100 µM | TGI (HL-60(TB) leukemia): > 100 µM | TGI (T-47D breast): > 100 µM | TGI (HOP-62 NSCLC): > 100 µM | TGI (HS 578T breast): > 100 µM | TGI (CAKI-1 renal): > 100 µM | TGI (MDA-N): > 100 µM | TGI (786-0 renal): > 100 µM | TGI (EKVX NSCLC): > 100 µM

CC(C)(CCCCC(C)(C)C1NC(=O)N1)C1NC(=O)N1
TGI (HCC-2998 colon): > 10 µM | TGI (HL-60(TB) leukemia): > 10 µM | TGI (T-47D breast): > 10 µM | TGI (HOP-62 NSCLC): > 10 µM | TGI (HS 578T breast): > 10 µM | TGI (CAKI-1 renal): > 10 µM | TGI (MDA-N): > 10 µM | TGI (EKVX NSCLC): > 10 µM

CC(C)CC(NC(=O)C(Cc1ccccc1)NC(=O)C(Cc1c[nH]c2ccccc12)NC(=O)CNC(=O)C(N)Cc1ccc(O)cc1)C(=O)O (centres undefined) (H-YGWFL-OH; configuration not given here)
TGI (HCC-2998 colon): 60.2 µM | TGI (HL-60(TB) leukemia): 60.9 µM | TGI (T-47D breast): 72.9 µM | TGI (HOP-62 NSCLC): > 100 µM | TGI (HS 578T breast): > 100 µM | TGI (CAKI-1 renal): > 100 µM | TGI (MDA-N): > 100 µM | TGI (786-0 renal): 49.4 µM | TGI (EKVX NSCLC): 73.6 µM

CC(=O)ON1C(=O)c2cccc3cccc(c23)C1=O
TGI (HCC-2998 colon): > 100 µM | TGI (HL-60(TB) leukemia): 45.5 µM | TGI (T-47D breast): 63.8 µM | TGI (HOP-62 NSCLC): 85.4 µM | TGI (HS 578T breast): 79.3 µM | TGI (CAKI-1 renal): 49 µM | TGI (MDA-N): 93.3 µM | TGI (EKVX NSCLC): > 100 µM

O=c1c2cc(I)ccc2nc(SCc2n[nH]c(=S)o2)n1Cc1ccccc1
TGI (HCC-2998 colon): 35.3 µM | TGI (HL-60(TB) leukemia): 16.5 µM | TGI (T-47D breast): 45.4 µM | TGI (HOP-62 NSCLC): 41 µM | TGI (HS 578T breast): 44.3 µM | TGI (CAKI-1 renal): 22.4 µM | TGI (MDA-N): 32 µM | TGI (786-0 renal): 30.3 µM | TGI (EKVX NSCLC): 40.8 µM

COC1=CC(=O)c2c(c(COP(=O)(N(C)CCBr)N(C)CCBr)cn2C)C1=O
TGI (HCC-2998 colon): 0.192 µM | TGI (HL-60(TB) leukemia): > 100 µM | TGI (T-47D breast): 19 µM | TGI (HOP-62 NSCLC): 0.776 µM | TGI (HS 578T breast): 2.93 µM | TGI (CAKI-1 renal): 0.377 µM | TGI (MDA-N): 0.274 µM | TGI (786-0 renal): 0.349 µM | TGI (EKVX NSCLC): 0.578 µM

CC(C)(C)c1cc(OCc2nnc3sc(=S)[nH]n23)c(Cl)cc1OCc1nnc2sc(=S)[nH]n12
TGI (HCC-2998 colon): 65.2 µM | TGI (HL-60(TB) leukemia): 55.5 µM | TGI (T-47D breast): 57.7 µM | TGI (HOP-62 NSCLC): > 100 µM | TGI (HS 578T breast): > 100 µM | TGI (CAKI-1 renal): 80.5 µM | TGI (MDA-N): 40.6 µM | TGI (786-0 renal): 95 µM | TGI (EKVX NSCLC): 85.4 µM

Cc1ccc(C(O)(c2ccc(C)cc2)c2ccccn2)cc1
TGI (HCC-2998 colon): > 100 µM | TGI (HOP-62 NSCLC): > 100 µM | TGI (DMS 273 small cell lung): > 100 µM | TGI (CAKI-1 renal): > 100 µM | TGI (KM20L2 colon): > 100 µM | TGI (786-0 renal): > 100 µM | TGI (EKVX NSCLC): > 100 µM
